Experimental data from patent publication US20230276804A1, “A PESTICIDALLY ACTIVE MIXTURE COMPRISING PYRAZOLOPYRIDINE ANTHRANILAMIDE COMPOUND, OXIDES OR SALTS THEREOF” (priority 2020, published 2023).

Assays:
Assay type in all cases: in vivo
[1] = tested on: Alternaria solani; test: Preventive glasshouse test against Alternaria solani in tomato (Example G); settings: single compound
Procedure: (§1) The single compounds or respective compound combinations were dissolved in 2% dimethyl sulfoxide/acetone and then mixed with water containing emulsifier to a calibrated spray volume of 50 mL. The test solutions were poured into spray bottles for further applications.
To test the preventive activity, healthy young tomato plants, raised in the greenhouse, were sprayed with the active compound preparation at the stated application rates inside the spray cabinets using hollow cone nozzles. One day after treatment, the plants were inoculated with a spore suspension containing 0.24×10^6 Alternaria solani inoculum and 2% Malt. The inoculated plants were then kept in a greenhouse chamber at a temperature of 22-24° C. and 90-95% relative humidity for disease expression.
A visual assessment of the performance of the single compounds or compound combinations was carried out by rating the disease severity (0-100% scale) on treated plants 3, 7, 10 and 15 days after application. Efficacy (% control) of the single compounds and mixtures was calculated by comparing the disease rating in the treatment with the one of the untreated control. The compounds were also assessed for their plant compatibility by recording symptoms like necrosis, chlorosis and stunting. The results have been described for the compound of formula (I-III) in Table G.

[2] = tested on: Phakopsora pachyrhizi; test: Preventive glasshouse test against Phakopsora pachyrhizi in soybean (Example H); settings: single compound
Procedure: The single compounds or the respective compound combinations were dissolved in 2% dimethyl sulfoxide/acetone and then mixed with water containing an emulsifier to a calibrated spray volume of 50 ml. The test solutions were poured into spray bottles for further applications.
To test the preventive activity of compounds, healthy young Soybean plants, raised in the greenhouse, were sprayed with the active compound preparation at the stated application rates inside the spray cabinets using hollow cone nozzles. One day after treatment, the plants were inoculated with a suspension containing 2×10^5 Phakopsora pachyrhizi conidia. The inoculated plants were then kept in a greenhouse chamber at a temperature of 22-24° C. and 80-90% relative humidity for disease expression.
A visual assessment of the performance of the single compounds and respective compound combinations was carried out by rating the disease severity (0-100% scale) on treated plants 3, 7, 10 and 15 days after application. Efficacy (% control) of the compounds was calculated by comparing the disease rating in the treatment with the one of the untreated control. The compounds were also assessed for their plant compatibility by recording symptoms like necrosis, chlorosis and stunting. The results have been described for the compound of formula (I-III) in Table H.

[3] = tested on: Pyricularia oryzae; settings: single compound, 100 ppm, preventive, rice
[4] = tested on: Septoria nodorum; test: Preventive glasshouse test against Parastagonospora nodorum/Septoria nodorum/Stagnospora nodorum in wheat (Example J); settings: single compound
Procedure: as §1
To test the preventive activity of compounds, healthy young wheat plants, raised in the greenhouse, were sprayed with the active compound preparation at the stated application rates inside the spray cabinets using hollow cone nozzles. One day after treatment, the plants were inoculated with a spore suspension containing 2.8×10^6 Stagnospora nodorum inoculum.
The inoculated plants were then kept in a greenhouse chamber at 22-25° C. temperature and 90-100% relative humidity for disease expression.
A visual assessment of the performance of the single compounds or compound combinations was carried out by rating the disease severity (0-100% scale) on treated plants 3, 7, 10 and 15 days after application. Efficacy (% control) of the single compounds and mixtures was calculated by comparing the disease rating in the treatment with the one of the untreated control. The compounds were also assessed for their plant compatibility by recording symptoms like necrosis, chlorosis and stunting. The results have been described for the compound of formula (I-III) in Table J.

6-(3-bromo-1-(3-chloropyridin-2-yl)-1H-pyrazole-5-carboxamido)-N-isopropyl-5-methylpyrazolo[1,5-a]pyridine-7-carboxamide [Compound (I-III)]
Observed Efficacy (%) ([1]; 100 ppm): 30% | Observed Efficacy (%) ([1]; 500 ppm): 32% | Observed Efficacy (%) ([2]; 100 ppm): 25% | Observed Efficacy (%) ([2]; 500 ppm): 56% | Observed Efficacy (%) [3]: 15% | Observed Efficacy (%) ([4]; 100 ppm): 24% | Observed Efficacy (%) ([4]; 500 ppm): 32%
